{"source": "patent US20100210667A1", "about": "“IMIDAZO [1, 2-C] PYRIMIDIN-2-YLMETHYLPIPERIDINES AS OREXIN RECEPTOR ANTAGONISTS” (priority 2007, published 2010)", "key": {"[1]": {"biological_target": "T1, human cloned orexin-1 receptor (alanine at position 280) (Homo sapiens, UniProt O43613)", "T1 construct": "expressed in transfected cells", "T1 sequence (O43613 1-425)": "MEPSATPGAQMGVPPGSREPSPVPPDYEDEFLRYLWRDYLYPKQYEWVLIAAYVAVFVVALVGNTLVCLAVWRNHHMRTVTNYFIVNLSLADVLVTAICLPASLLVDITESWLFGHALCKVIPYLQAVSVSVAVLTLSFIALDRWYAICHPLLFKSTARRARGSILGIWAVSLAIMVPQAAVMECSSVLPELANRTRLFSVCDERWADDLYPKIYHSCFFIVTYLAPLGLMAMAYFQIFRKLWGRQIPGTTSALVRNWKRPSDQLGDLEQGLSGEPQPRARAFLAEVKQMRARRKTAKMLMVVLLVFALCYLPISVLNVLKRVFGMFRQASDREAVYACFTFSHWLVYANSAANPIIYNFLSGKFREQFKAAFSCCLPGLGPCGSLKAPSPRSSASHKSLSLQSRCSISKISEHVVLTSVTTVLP", "test": "Antagonist affinity at human orexin-1 receptor using FLIPR ([Ca2+]i, CHO cells)", "type": "cell-based", "conditions": "hOrexin A at EC80, IC50 converted to functional pKi by modified Cheng-Prusoff, read-out: fpKi at the human cloned orexin-1 receptor", "from_the_text": "Determination of ANTAGONIST AFFINITY at Human Orexin-1 and 2 Receptors Using FLIPR\nAdherent Chinese Hamster Ovary (CHO) cells, stably expressing the recombinant human Orexin-1 or human Orexin-2 receptors or Rat Basophilic Leukaemia Cells (RBL) stably expressing recombinant rat Orexin-1 or rat Orexin-2 receptors were maintained in culture in Alpha Minimum Essential Medium (Gibco/Invitrogen, cat. no.; 22571-020), supplemented with 10% decomplemented foetal bovine serum (Life Technologies, cat. no. 10106-078) and 400 μg/mL Geneticin G418 (Calbiochem, cat. no.345810). Cells were grown as monolayers under 95%:5% air:CO2 at 37° C.\nThe sequences of the human orexin 1, human orexin 2, rat orexin 1 and rat orexin 2 receptors used in this example were as published in Sakurai, T. et al (1998) Cell, 92 pp 573 to 585, with the exception that the human orexin 1 receptor sequence used had the amino acid residue alanine at position 280 and not glycine as reported in Sakurai et al.\nCells were seeded into black clear-bottom 384-well plates (density of 20,000 cells per well) in culture medium as described above and maintained overnight (95%:5% air:CO2 at 37° C.). On the day of the experiment, culture medium were discarded and the cells washed three times with standard buffer (NaCl, 145 mM; KCl, 5 mM; HEPES, 20 mM; Glucose, 5.5 mM; MgCl2, 1 mM; CaCl2, 2 mM) added with Probenecid 2.5 mM. The plates were then incubated at 37° C. for 60 minutes in the dark with 1 μM FLUO-4AM dye to allow cell uptake of the FLUO-4AM, which is subsequently converted by intracellular esterases to FLUO-4, which is unable to leave the cells. After incubation, cells were washed three times with standard buffer to remove extracellular dye and 30 μL of buffer were left in each well after washing.\nCompounds of the invention were tested in a final assay concentration range from 1.66×10^−5M to 1.58×10^−11M. Compounds of the invention were dissolved in dimethylsulfoxide (DMSO) at a stock concentration of 10 mM. These stock solutions were serially diluted with DMSO and 1 μL of each dilution was transferred to a 384 well compound plate. Immediately before introducing compound to the cells, buffer solution (50 μl/well) was added to this plate. To allow agonist stimulation of the cells, a stock plate containing a solution of human orexin A (hOrexin A) was diluted with buffer to final concentration just before use. This final concentration of hOrexin A was equivalent to the calculated EC80 for hOrexinA agonist potency in this test system. This value was obtained by testing hOrexinA in concentration response curve (at least 16 replicates) the same day of the experiment.\nThe loaded cells were then incubated for 10min at 37° C. with test compound. The plates were then placed into a FLIPRTM (Molecular Devices, UK) to monitor cell fluorescence (λex=488 nm, λEM=540 nm) (Sullivan E, Tucker E M, Dale I L. Measurement of [Ca^2+]i, using the fluometric imaging plate reader (FLIPR). In: Lambert D G (ed.), Calcium Signaling Protocols. New Jersey: Humana Press, 1999, 125-136). A baseline fluorescence reading was taken over a 5 to 10 second period, and then 10 μL of EC80 hOrexinA solution was added. The fluorescence was then read over a 4-5 minute period.\nFunctional responses using FLIPR were measured as peak fluorescence intensity minus basal fluorescence and expressed as a percentage of a non-inhibited Orexin-A-induced response on the same plate. […]"}, "food intake": {"system": "food intake", "conditions": "central administration, freely-feeding rats, 4 hour time period; cited from earlier work"}}, "note": "pKi: −log10 of the molar value. Ends that are not written are not given here.", "data": [{"molecule": "Cc1nc(C(=O)N2CCCC[C@H]2Cc2cn3cnc(Cl)c(C)c3n2)c(-c2ccccc2)s1", "note": "[Example 1, 7-chloro-8-methyl-2-({2S)-1-[(2-methyl-5-phenyl-1,3-thiazol-4-ylcarbonyl]-2-piperidinyl}methyl)imidazo[1,2-c]pyrimidine]", "values": [{"measurement": "pKi", "setting": "[1]", "result": "8.40 to 9.20"}]}, {"molecule": "Cc1nc(C(=O)N2CCCC[C@H]2Cc2cn3cncc(C)c3n2)c(-c2ccccc2)s1", "note": "[Example 2]", "values": [{"measurement": "pKi", "setting": "[1]", "result": "8.40 to 9.20"}]}, {"molecule": "COc1ncn2cc(C[C@@H]3CCCCN3C(=O)c3nc(C)sc3-c3ccccc3)nc2c1C", "note": "[Example 3, 8-methyl-7-(methyloxy)-2-({(2-S)-1-[(2-methyl-5-phenyl-1,3-thiazol-4-yl)carbonyl]-2-piperidinyl}methyl)imidazo[1,2-c]pyrimidine]", "values": [{"measurement": "pKi", "setting": "[1]", "result": "8.40 to 9.20"}]}, {"molecule": "Cc1nc(C(=O)N2CCCC[C@H]2Cc2cn3cnc(C)c(Cl)c3n2)c(-c2ccccc2)s1", "note": "[Example 4, 8-chloro-7-methyl-2-({(2S)-1-[(2-methyl-5-phenyl-1,3-thiazol-4-yl)carbonyl]-2-piperidinyl}methyl)imidazo[1,2-c]pyrimidine]", "values": [{"measurement": "pKi", "setting": "[1]", "result": "8.40 to 9.20"}]}, {"molecule": "Cc1nc(C(=O)N2CCCC[C@H]2Cc2cn3cnc(C)c(C)c3n2)c(-c2ccccc2)s1", "note": "[Example 5, 7,8-dimethyl-2-({(2S)-1-[(2-methyl-5-phenyl-1,3-thiazol-4-yl)carbonyl]-2-piperidinyl}methyl)imidazo[1,2-c]pyrimidine]", "values": [{"measurement": "pKi", "setting": "[1]", "result": "8.40 to 9.20"}]}, {"molecule": "orexin-A: polypeptide ligand for the orexin-1 receptor, an agonist of the orexin receptors (QPLPDCCRQKTCSCRLYELLHGAGNHAAGILTL; ends and bridges not checked; cysteine pairing not given here; UniProt O43612 34-66, looked up)", "values": [{"measurement": "increase of food intake over control rats receiving vehicle", "setting": "food intake", "result": "approximately four-fold"}]}]}
